Measured values from PMC11714206, “Massively Parallel Screening of Toll/Interleukin‐1 Receptor (TIR)‐Derived Peptides Reveals Multiple Toll‐Like Receptors (TLRs)‐Targeting Immunomodulatory Peptides” (Advanced Science, 2024).
Each block holds one sequence with its values, some of them ahead of it.

Target: T1, MyD88^TIR (Homo sapiens, UniProt Q99836)
T1 construct: MyD88 (residues 148–296); 6xHis; made in house; host or cells: E. coli BL21 (DE3)
Test: T‐Surf phage library (P8 and P3) selection against MyD88^TIR, four rounds, NGS read counts
Type: binding
Settings: for P3_MyD88 Rank (after) / P3_MyD88 Rank (before): P3 library; for Population: 4th round of selection against MyD88 TIR, share of NGS reads; for P8_MyD88 Rank (after) / P8_MyD88 Rank (before): P8 library
Outline: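 P8 and P3 T‐Surf libraries panned against plate-coated TIR domains (5 µg mL^−1), 1 h binding at RT, acid elution and TG1/helper-phage amplification per round. After four rounds, pools were PCR-barcoded and sequenced (NovaSeq, 100 bp paired-end, Phred ≥30); peptides ranked by read counts.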

[1] = P8_MyD88: rank by count after grouping
[2] = P8_MyD88: rank by count before grouping
[3] = selection against MyD88, rank by count after grouping
[4] = selection against MyD88, rank by count before grouping
[5] = P3_MyD88: rank by count after grouping
[6] = P3_MyD88: rank by count before grouping
[7] = 4R selection against MyD88, rank after grouping
[8] = 4R selection against MyD88, rank before grouping
[9] = selection against MyD88, rank after grouping
[10] = selection against MyD88, rank before grouping
[11] = P8_MyD88 pool: P8 T-Surf phage library
[12] = P3_MyD88 pool: P3 T-Surf phage library
[13] = selection against MyD88 TIR, rank by count after grouping
[14] = selection against MyD88 TIR, rank by count before grouping
[15] = P8_MyD88: rank by NGS read count after grouping
[16] = P8_MyD88: rank by NGS read count before grouping

T1 sequence (Q99836 148-296): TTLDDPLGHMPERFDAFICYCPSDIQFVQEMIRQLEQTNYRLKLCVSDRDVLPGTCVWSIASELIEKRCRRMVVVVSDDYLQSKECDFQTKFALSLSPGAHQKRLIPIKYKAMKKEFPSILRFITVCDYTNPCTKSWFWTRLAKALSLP

Rank (after) [5]: 110
Rank (before) [6]: 575
Sequence: YLKWGYPWFWSKLRYAM

P3_MyD88 Rank (after) [7]: 645
P3_MyD88 Rank (before) [8]: 1641
Sequence: YTALTYSGFHTFRGND

P3_MyD88 Rank (after) [9]: 568
P3_MyD88 Rank (before) [10]: 1571
Sequence: YLKWGSPWFWDRLRFGPIGQ

Rank (after) [5]: 158
Rank (before) [6]: 3187
Sequence: SSFREGLWRLQELSKT

Population [12]: 0.0032%
Sequence: DHHLDLPRGKAIKPEILS

Rank (after) [5]: 458
Rank (before) [6]: 3185
Sequence: SSFREGLWRLQALSKK

Population [11]: 0.00655%
Sequence: LGYHWIDWEYFVGSED

P8_MyD88 Rank (after) [13]: 239
P8_MyD88 Rank (before) [14]: 1938
Sequence: YELDFSHFWLFDGHATGEA

P8_MyD88 Rank (after) [9]: 572
P8_MyD88 Rank (before) [10]: 2260
Sequence: VSHLIDAFERYGIMFFIDT

Rank (after) [5]: 395
Rank (before) [6]: 3228
Sequence: SSFRESLWRLLALNKR

Rank (after) [1]: 460
Rank (before) [2]: 2253
Sequence: VQWEDPWFWDKLAYEM

P8_MyD88 Rank (after) [13]: 243
P8_MyD88 Rank (before) [14]: 435
Sequence: WRDVLKYIANLSGWDS

P8_MyD88 Rank (after) [3]: 741
P8_MyD88 Rank (before) [4]: 2395
Sequence: DWVLGYRLPNLEGPAG

Rank (after) [15]: 906
Rank (before) [16]: 1733
Sequence: YAASPWWFDELVKILE

P8_MyD88 Rank (after) [7]: 640
P8_MyD88 Rank (before) [8]: 3023
Sequence: DPQLLVCFYERLVSLF

Rank (after) [1]: 127
Rank (before) [2]: 141
Population [11]: 0.0116%
Sequence: ELDFSHFWLFEGHATGEA

P8_MyD88 Rank (after) [13]: 200
P8_MyD88 Rank (before) [14]: 271
Sequence: WFWQKLNYAMPHLARL

P8_MyD88 Rank (after) [13]: 257
P8_MyD88 Rank (before) [14]: 447
Sequence: YLMWPQEEEEIPLFWH

Rank (after) [5]: 403
Rank (before) [6]: 2415
Sequence: LKWGDPYFCSKLRYPM

P8_MyD88 Rank (after) [7]: 599
P8_MyD88 Rank (before) [8]: 1388
Sequence: WVFASNLETFWARLYY

Population [12]: 0.00466%
Sequence: EWIREQLRPALKERLP

P8_MyD88 Rank (after) [7]: 643
P8_MyD88 Rank (before) [8]: 2038
Sequence: YLRADDLVLGKTAVC

Rank (after) [15]: 983
Rank (before) [16]: 2070
Sequence: YLRADDNDYYWVTHVLLRHL

The remaining lines, values behind:

Sequence: DPQDLDCFYERLVNLF
Rank (after) [1]: 408
Rank (before) [2]: 2740

Sequence: SSFREGLCRLLELSKQ
P3_MyD88 Rank (after) [3]: 725
P3_MyD88 Rank (before) [4]: 3201

Sequence: IVQALWSKVHHSLTLF
Rank (after) [1]: 145
Rank (before) [2]: 157
Population [11]: 0.01%

Sequence: YAASPWWFDDIQQIQLFWD
P8_MyD88 Rank (after) [9]: 543
P8_MyD88 Rank (before) [10]: 1720

Sequence: YELDFSHFSLFEGQAT
Rank (after) [1]: 463
Rank (before) [2]: 1949

Sequence: KEVEGWRNALTNVASL
P3_MyD88 Rank (after) [7]: 617
P3_MyD88 Rank (before) [8]: 3650

Sequence: SSSFALHELATILEAL
Rank (after) [1]: 412
Rank (before) [2]: 1290

Sequence: EAFAVHENISKKTLK
P3_MyD88 Rank (after) [7]: 611
P3_MyD88 Rank (before) [8]: 2194

Sequence: YLRADDIWVWEKLLYA
P8_MyD88 Rank (after) [7]: 646
P8_MyD88 Rank (before) [8]: 2040

Sequence: NDLLHVWSSKANSLVG
P3_MyD88 Rank (after) [9]: 527
P3_MyD88 Rank (before) [10]: 3389

Sequence: PGYHWLEWEYFVGIED
Rank (after) [1]: 442
Rank (before) [2]: 1195

Sequence: VDPSHLRKQSGEFG
P3_MyD88 Rank (after) [3]: 683
P3_MyD88 Rank (before) [4]: 1770

Sequence: LGYHGLIGSILWALK
P8_MyD88 Rank (after) [7]: 618
P8_MyD88 Rank (before) [8]: 3317

Sequence: LGFNWMDWEYFVGIEG
P8_MyD88 Rank (after) [7]: 671
P8_MyD88 Rank (before) [8]: 3216

Sequence: LVAHELSNKMKSFATI
Rank (after) [5]: 386
Rank (before) [6]: 2276

Sequence: YFRNESEFIQEIVQWV
Rank (after) [1]: 118
Rank (before) [2]: 125
Population [11]: 0.0162%

Sequence: LQNQWKLALTNSGFHTFRDND
P3_MyD88 Rank (after) [7]: 585
P3_MyD88 Rank (before) [8]: 2346

Sequence: LGYHWVDWGCFVGIAD
Rank (after) [15]: 958
Rank (before) [16]: 3232

Sequence: YNFISHLYDALRLNKIETF
P3_MyD88 Rank (after) [13]: 271
P3_MyD88 Rank (before) [14]: 896

Sequence: LSRVPSVHDFRGFATI
Rank (after) [5]: 111
Rank (before) [6]: 682

Sequence: WALSELVEILRARENM
P8_MyD88 Rank (after) [13]: 195
P8_MyD88 Rank (before) [14]: 254

Sequence: WALEELRLIMELHSV
P8_MyD88 Rank (after) [9]: 504
P8_MyD88 Rank (before) [10]: 1525

Sequence: AVDKETDKIQTPLEM
Rank (after) [5]: 115
Rank (before) [6]: 601

Sequence: WALDELLQILNAREMF
Rank (after) [1]: 415
Rank (before) [2]: 1464

Sequence: SSFREGLWRLMALIKK
P3_MyD88 Rank (after) [7]: 600
P3_MyD88 Rank (before) [8]: 3188

Sequence: NEWVNAWTSKANRRVG
P3_MyD88 Rank (after) [7]: 602
P3_MyD88 Rank (before) [8]: 3395
